Tested on: not listed separately
Test: Binding of compounds to free synthetic melanin (Example 3)
Conditions: free synthetic melanin 50 μg/mL, compound 10 μM in PBS, 37° C., 1 hour; relative percentage of compound bound, measured spectrophotometrically from compound left in solution
Protocol: Free synthetic melanin was incubated with compounds of interest in order to determine relative binding affinity of various compounds of interest to melanin. Free synthetic melanin (50 μg/mL) and compounds of interest at 10 μM concentration in PBS were incubated at 37° C. for 1 hour. After 1 hour, the synthetic melanin was removed from the solution, and the relative concentrations of the compound left in solution (i.e., not bound to the melanin) were measured spectrophometrically.

Row | SMILES | % Melanin Bound
1 | OCC[n+]1ccccc1.[Cl-] [1-(2-Hydroxyethyl) pyridinium chloride] | 0%
2 | CCCC[n+]1ccccc1.[Cl-] [1-Butylpyridinium chloride] | 0%
3 | OCCc1c[nH]c2ccccc12 [3-(2-Hydroxyethyl)indole] | 6.5%
4 | Nc1cnc2ccccc2c1 [3-Aminoquinoline] | 5.1%
5 | CCCCCCCCCCCC[n+]1ccc(N)cc1.[Cl-] [4-Amino-1-dodecyl-pyridinium chloride] | 49.5%
6 | O=C(O)/C=C/c1ccc(O)c(O)c1 [Caffeic acid] | 0%
7 | Cn1c(=O)c2c(ncn2C)n(C)c1=O [Caffeine] | 4.4%
8 | CCN(CC)CCCC(C)Nc1ccnc2cc(Cl)ccc12 (stereo not shown) [Chloroquine] | 48.6%
9 | O=CC[C@@H](O)[C@H](O)[C@H](O)CO [Deoxy-d-glucose] | Not detected
10 | CCCCCCCCCCCCOC(=O)CCSCCC(=O)OCCCCCCCCCCCC [Dilauryl Thiodipropionate] | Not detected
11 | O=C(O)c1cc(O)c(O)c(O)c1 [Gallic acid] | 0%
12 | c1ccc2[nH]ccc2c1 [Indole] | 7.3%
13 | NC(=O)c1cccnc1 [Niacinamide] | 0%
14 | CC1COC(=O)O1 (stereo not shown) [Propylene Carbonate] | Not detected
15 | Cl.c1ccncc1 [Pyridine hydrochloride] | 0%
16 | Oc1ccccc1O [Pyrocatechol] | 21.5%
17 | Oc1cccc(O)c1O [Pyrogallol] | Not detected
18 | O=c1c(O)c(-c2ccc(O)c(O)c2)oc2cc(O)cc(O)c12 [Quercetin] | 99.7%
19 | O=C(O)CCSCCC(=O)O [Thiodipropanoic Acid] | 1.5%

Tested on: Melanoderm Mel-B (high concentration of melanin) and Melanoderm Mel-C (low concentration of melanin) tissue models
Test: Affinity of pyridinium compounds for melanin in Melanoderm tissue models (Example 2)
Format: cell-based
Conditions: Melanoderm tissue models; 1 μM and 10 μM
Description: Affinity of pyridinium compounds for melanin in Melanoderm Mel-B (high concentration of melanin) and Melanoderm Mel-C (low concentration of melanin) tissue models.
Melanoderm Mel-B (high concentration of melanin) and Melanoderm Mel-C (low concentration of melanin) tissue models were used to determine the affinity of pyridinium compounds for melanin. Chloroquine served as a positive control and caffeic acid was a negative control for melanin binding. […] Test materials were topically applied at 0, 24 and 48 hours and tested at 1 μM and 10 μM concentration in water. Media samples were collected at 6, 24, 48, and 72 hours and tissue were lysed at 72 hours.

Row | SMILES | melanin binding compared with the positive control (chloroquine)
20 | CCCCCCCCCCCC[n+]1ccc(N)cc1.[Cl-] [4-Amino-1-dodecyl-pyridinium chloride] | outperformed the positive control

Same assay, conditions: Melanoderm tissue models; 10 μM versus 1 μM

Row | SMILES | melanin binding, 10 μM compared to 1 μM concentration
21 | CCCCCCCCCCCC[n+]1ccc(N)cc1.[Cl-] [4-Amino-1-dodecyl-pyridinium chloride] | increased melanin binding

Same assay, conditions: topically applied at 0, 24 and 48 hours, 1 μM and 10 μM in water; media at 6, 24, 48, 72 hours, tissue lysed at 72 hours; FIG. 1

Row | SMILES | binding affinity for the 3-D tissue samples
22 | CCCCCCCCCCCC[n+]1ccc(N)cc1.[Cl-] [4-Amino-1-dodecyl-pyridinium chloride] | strong binding affinity
